Entries after “also recorded” stand apart in the source; their conditions may differ.
Experiments:
GLT-1 mRNA = experiment: Real Time RT-PCR of ipsilateral lumbar spinal cord, GLT-1 mRNA; type: in vivo, rat; settings: daily intrathecal
Method: Tissue was collected from 4-5 rats/group on postoperative days 4 or 12. In order to obtain both mRNA and protein from the same tissue sample, the L5 region of the spinal cord (ipsilateral to the injury), was isolated and placed in PBS supplemented with protease inhibitor cocktail (1:1000, Sigma Chemical Co., St. Louis, Mo.) and RNase inhibitor (0.75 U/μL Ambion, Austin, Tex.). Samples were sonicated in five one-second bursts at half-maximal power, centrifuged at 6500 rpm for 15 minutes at 4° C. Protein-containing supernatants were collected and stored at −80° C. until further processing by Western blot analysis. […]
Real time RT-PCR reactions were carried out in a total reaction volume of 25 μL containing a final concentration of 1.5 U Platinum Taq DNA polymerase (Invitrogen Corporation, Carlsbad, Calif.); 20 mM Tris HCl (pH 8.4); 50 mM KCl; 3 mM MgCl2; 200 μM dGTP, dCTP, and dATP; 400 μM dUTP and 1 U of UDG (uracyl DNA glycosylase); 900 nM of forward and reverse primers; 300 nM Taqman probe; and 5 μL of a 10-fold dilution of cDNA (50 ng) from the RT step. The iCycler™ Multicolor Real-Time PCR detection system (Bio-Rad, Hercules, Calif.) was used to quantify PCR product. […] The relative fold change from control was then expressed by calculation of 2^−ΔΔC^T for each sample and the results are expressed as the group mean fold change±SEM.

GLT-1 = experiment: Western blot of ipsilateral lumbar spinal cord, GLT-1 protein; type: in vivo, rat; settings: day 12 post-transection
Method: Tissue was collected from 4-5 rats/group on postoperative days 4 or 12. In order to obtain both mRNA and protein from the same tissue sample, the L5 region of the spinal cord (ipsilateral to the injury), was isolated and placed in PBS supplemented with protease inhibitor cocktail (1:1000, Sigma Chemical Co., St. Louis, Mo.) and RNase inhibitor (0.75 U/μL Ambion, Austin, Tex.). Samples were sonicated in five one-second bursts at half-maximal power, centrifuged at 6500 rpm for 15 minutes at 4° C. Protein-containing supernatants were collected and stored at −80° C. until further processing by Western blot analysis. The pellet was treated with TRIzol reagent (Invitrogen, Carlsbad, Calif.) for the extraction of total RNA according to the manufacturer's specifications.
Protein obtained from L5 lumbar spinal cord was quantified using the Lowry method (DC assay, Bio-Rad, Hercules, Calif.). Forty micrograms of protein and standard protein markers were subjected to SDS polyacrylamide gel electrophoresis (7.5% gel, Bio-Rad, Hercules, Calif.) and id transferred to polyvinylidene difluoride (PVDF, Bio-Rad, Hercules, Calif.) filters. Nonspecific binding was blocked by incubation with 5% milk/PBS-T at room temperature for 1 hour followed by incubation overnight at 4° C. with monoclonal guinea pig anti-GLT-1 or guinea pig anti-GLAST (1:2500, Chemicon). […]

[1] = tested on: primary cultured astrocytes; experiment: Astrocyte morphology and process length, phase contrast microscopy; type: cell-based, rat; settings: 3 days or 7 days of treatment, phase contrast microscopy
Method: Astrocyte cultures were prepared from the cortices of neonatal rats (1-3 days old) using the Worthington Papain Dissociation System (Worthington Biochemical Corporation, Lakewood, N.J.) according to the method of Huettner and Baughman (1986. J. Neurosci. 6:3044-3060). Briefly, cortices of neonatal rats were dissected, treated with papain (20 U/ml), dissociated by trituration and plated in 75 cm^2 flasks in Dulbecco's modified Eagle's medium (DMEM) supplemented with 10% charcoal-stripped fetal bovine serum (FBS), 1% GlutaMax and 1% penicillin/streptomycin (P/S, 100 U/ml penicillin, 100 μg/ml streptomycin, P/S). Cells were fed twice weekly until they reached confluence (Day in vitro, DIV 10-12) at which point they were mechanically shaken for 1 hr on an orbital shaker to remove any remaining oligodendrocytes and microglia. Subsequently, cultures were treated with trypsin for 30 minutes at 37° C. and re-plated into 6 or 12-well dishes at a density of about 3.0×10^4 cells/cm^2. Resultant cultures were greater than 95% astrocytic as determined by GFAP immunostaining.
(§1) After approximately 14 days (2 days after subplating into plates, DIV 14) astrocytes had formed a confluent monolayer. […] Phase contrast microscopy was then carried out in order to assess the morphology of cells after the various treatments. Length of astrocyte processes was quantified by measuring all processes in 2-3 phase contrast images/group by an independent observer, blinded to the treatment groups using Image J v1.34s (National Institutes of Health, Bethesda, Md.).

MIP-2 (CXCL2) = experiment: ELISA of MIP-2 release from cultured astrocytes; type: cell-based, rat; settings: seven days, LPS 1 μg/ml; propentofylline 1000 μM; db-cAMP 250 μM
Method: as §1
Standard ELISA was performed for quantitative determination of MCP-1 and MIP-2 protein in cell culture supernatant. Assays were carried out according to the manufacturer's specifications (Biosource, Camarillo, Calif.) using the sandwich enzyme immunoassay procedure. Optical density at 450 nm was obtained using the MRX Revelations program (Dynex Technologies, Chantilly, Va.) and relative protein concentrations were determined by comparing samples to the standard curve generated.

CCCn1cnc2c1c(=O)n(CCCCC(C)=O)c(=O)n2C [propentofylline]
GLT-1 mRNA in lumbar spinal cord (GLT-1 mRNA; day 4 post-transection): enhanced; also recorded: significantly increased levels of GLT-1 mRNA | GLT-1 mRNA in lumbar spinal cord (GLT-1 mRNA; day 12 post-transection): enhanced; also recorded: significantly increased levels of GLT-1 mRNA | GLT-1 protein compared to L5 transection alone (GLT-1): reversed with propentofylline treatment; also recorded: significantly elevated | astrocyte morphology [1]: dose-dependent shift from a flat, polygonal shape to a stellate, process-bearing shape | LPS-induced MIP-2 (CXCL2) release (MIP-2 (CXCL2)): reversed by co-treatment with propentofylline; also recorded: significantly attenuated

From patent publication US20090227606A1, “Methods for Preventing or Treating Acute and Chronic Pain” (priority 2006, published 2009)
